Test results: patent publication US7420001B2 (Wyeth, priority 2003, dated 2008)
Read-outs that look alike come from different tables or passages of the source.

Legend:
Assay type in all cases: biochemical
MMP-14 = molecular target: T1, MMP-14 (Homo sapiens, UniProt P50281); assay: In-vitro fluorescence assay of MMP-14 activity; settings: recombinant human catalytic domain of MMP-14
T1 construct: 20 kDa; purchased Chemicon International, Inc. CC 1041

MMP-13 = molecular target: T2, MMP-13 (Homo sapiens, UniProt P45452); assay: In-vitro fluorescence assay of MMP-13 activity
T2 construct: made in house

MMP-2 = molecular target: T3, MMP-2 (Homo sapiens, UniProt P08253); assay: In-vitro fluorescence assay of MMP-2 activity; settings: recombinant human MMP-2; read-out: MMP-2 IC50
T3 construct: purchased Oncogene Research Products (Calbiochem) PF023
T3 sequence (P08253 110-660): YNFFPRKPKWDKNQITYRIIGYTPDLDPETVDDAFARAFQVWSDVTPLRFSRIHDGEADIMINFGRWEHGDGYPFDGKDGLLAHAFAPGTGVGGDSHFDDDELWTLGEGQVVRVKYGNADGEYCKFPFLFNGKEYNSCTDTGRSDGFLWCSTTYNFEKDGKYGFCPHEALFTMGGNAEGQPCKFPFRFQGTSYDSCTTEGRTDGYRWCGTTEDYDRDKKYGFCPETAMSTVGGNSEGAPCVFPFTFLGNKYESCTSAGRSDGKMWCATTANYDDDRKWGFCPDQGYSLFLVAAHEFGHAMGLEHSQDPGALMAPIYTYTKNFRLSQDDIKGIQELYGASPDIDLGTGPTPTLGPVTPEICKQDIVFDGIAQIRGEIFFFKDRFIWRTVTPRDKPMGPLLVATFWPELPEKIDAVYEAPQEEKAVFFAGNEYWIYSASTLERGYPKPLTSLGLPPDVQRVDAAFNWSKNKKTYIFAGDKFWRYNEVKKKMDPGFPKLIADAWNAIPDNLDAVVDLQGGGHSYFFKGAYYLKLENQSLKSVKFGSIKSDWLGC

[1] = recombinant human catalytic domain of MMP-13, read-out: MMP-13 IC50

Row | Compound | IC50 (MMP-13; [1]) [µM] | IC50 (MMP-2) [µM] | IC50 (MMP-13; MMP-13 IC50, recombinant human catalytic domain of MMP-13) [µM] | IC50 (MMP-14) [µM]
1 | CC(C)[C@H](NS(=O)(=O)c1ccc(-c2ccc(NC(=O)c3cc4ccccc4[nH]3)cc2)cc1)C(=O)O [Example 3] | – | – | – | 5.6
2 | Cc1c(COc2ccc(-c3ccc(S(=O)(=O)N[C@@H](C(=O)O)C(C)C)cc3)cc2)oc2ccccc12 [Example 139, D-3-Methyl-2-[4′-(3-methyl-benzofuran-2-ylmethoxy)-biphenyl-4-sulfonylamino]-butyric acid] | 0.0044 | 0.028 | – | 3.5
3 | COc1c(C#N)ccc2oc(C(=O)Nc3ccc(-c4ccc(S(=O)(=O)N[C@H](C(=O)O)C(C)C)cc4)cc3)c(C)c12 [Example 124, (S)-2-{4′-[(5-Cyano-4-methoxy-3-methyl-benzofuran-2-carbonyl)-amino]-biphenyl-4-sulfonylamino}-3-methyl-butyric acid] | 0.003 | 0.522 | – | –
4 | Cc1c(COc2ccc(-c3ccc(S(=O)(=O)N[C@@H](C(=O)O)C(C)C)cc3)cc2)oc2ccc(Br)c(OC(C)C)c12 [Example 149, N-({4′-[(5-Bromo-4-isopropoxy-3-methyl-1-benzofuran-2-yl)methoxy]-1,1′-biphenyl-4-yl}sulfonyl)-D-valine] | 0.0079 | 0.375 | – | –
5 | CCn1c(C(=O)Nc2ccc(-c3ccc(S(=O)(=O)N[C@H](C(=O)O)C(C)C)cc3)nc2)nc2ccccc21 [Example 162, L-2-(4-{5-[(1-Ethyl-1H-benzimidazole-2-carbonyl)-amino]-pyridin-2-yl}-benzenesulfonylamino)-3-methyl-butyric acid] | 0.085 | 2.61 | – | –
6 | Cc1c(C(=O)Nc2ccc(-c3ccc(S(=O)(=O)N[C@H](C(=O)O)C(C)C)cc3)cc2)oc2ccc(Br)cc12 [Example 45, 2-{4′-[(5-Bromo-3-methyl-benzofuran-2-carbonyl)-amino]-biphenyl-4-sulfonylamino}-3-methyl-butyric acid] | 0.003 | 0.081 | – | –
7 | CCc1cccc2oc(C(=O)Nc3ccc(-c4ccc(S(=O)(=O)N[C@H](C(=O)O)C(C)C)cc4)cc3)c(C)c12 [Example 87, N-[(4′-{[(4-Ethyl-3-methyl-1-benzofuran-2-yl)carbonyl]amino}-1,1′-biphenyl-4-yl)sulfonyl]-L-valine] | 0.0023 | 1.41 | – | –
8 | CC(=O)c1ccc2oc(C(=O)Nc3ccc(-c4ccc(S(=O)(=O)N[C@H](C(=O)O)C(C)C)cc4)cc3)c(C)c2c1O [Example 123, (S)-2-{4′-[(5-Acetyl-4-hydroxy-3-methyl-benzofuran-2-carbonyl)-amino]-biphenyl-4-sulfonylamino}-3-methyl-butyric acid] | 0.0032 | 0.063 | – | –
9 | Cc1c(C(=O)Nc2ccc(-c3ccc(S(=O)(=O)N[C@H](C(=O)O)C(C)C)cc3)cc2)oc2cccc(OCCNC(=O)OC(C)(C)C)c12 [Example 177, (S)-2-(4′-{[4-(2-tert-Butoxycarbonylamino-ethoxy)-3-methyl-benzofuran-2-carbonyl]-amino}-biphenyl-4-sulfonylamino)-3-methyl-butyric acid] | 0.015 | 3 | – | –
10 | Cc1c(C(=O)Nc2ccc(-c3ccc(S(=O)(=O)N[C@H](C(=O)O)C(C)C)cc3)cc2)oc2cccc(CCCO)c12 [Example 27, L-2-(4′-{[4-(3-Hydroxy-propyl)-3-methyl-benzofuran-2-carbonyl]-amino}-biphenyl-4-sulfonylamino)-3-methyl-butyric acid] | 0.0071 | 4.41 | – | –

The next lines start with results.

Row | IC50 (MMP-13; [1]) [µM] | IC50 (MMP-2) [µM] | IC50 (MMP-13; MMP-13 IC50, recombinant human catalytic domain of MMP-13) [µM] | Compound | IC50 (MMP-14) [µM]
11 | 0.0065 | 5.11 | – | Cc1c(C(=O)Nc2ccc(-c3ccc(S(=O)(=O)N[C@H](C(=O)O)C(C)C)cc3)cc2)oc2cccc(N(C)C)c12 [Example 62, L-2-{4′-[(4-Dimethylamino-3-methyl-benzofuran-2-carbonyl)-amino]-biphenyl-4-sulfonylamino}-3-methyl-butyric acid] | –
12 | 0.0071 | 4 | – | Cc1c(C(=O)Nc2ccc(-c3ccc(S(=O)(=O)N[C@H](C(=O)O)C(C)C)cc3)cc2)oc2cccc(OCc3ccncc3)c12 [Example 179, (S)-3-Methyl-2-(4′-{[3-methyl-4-(pyridin-4-ylmethoxy)-benzofuran-2-carbonyl]-amino}-biphenyl-4-sulfonylamino)-butyric acid] | –
13 | 0.0021 | 0.13 | – | COc1c(Cl)ccc2oc(COc3ccc(-c4ccc(S(=O)(=O)N[C@H](C(=O)O)C(C)C)cc4)cc3)c(C)c12 [Example 142, L-2-[4′-(5-Chloro-4-methoxy-3-methylbenzofuran-2-ylmethoxy)-biphenyl-4-sulfonylamino]-3-methyl butyric acid] | –
14 | 0.035 | 5.77 | – | CCC(=O)Nc1cccc2oc(C(=O)Nc3ccc(-c4ccc(S(=O)(=O)N[C@H](C(=O)O)C(C)C)cc4)cc3)c(C)c12 [Example 49, L-3-Methyl-2-{4′-[(3-methyl-4-propionylamino-benzofuran-2-carbonyl)-amino]-biphenyl-4-sulfonylamino}-butyric acid] | –
15 | 0.0109 | 2.47 | – | Cc1c(C(=O)Nc2ccc(-c3ccc(S(=O)(=O)N[C@H](C(=O)O)C(C)O)cc3)cc2)oc2cccc(NS(C)(=O)=O)c12 (stereo partly drawn) [Example 65, L-3-Hydroxy-2-{4′-[(4-methanesulfonylamino-3-methyl-benzofuran-2-carbonyl)-amino]-biphenyl-4-sulfonylamino}-butyric acid] | –
16 | 0.0095 | 4.55 | – | Cc1c(C(=O)Nc2ccc(-c3ccc(S(=O)(=O)N[C@H](C(=O)O)C(C)C)cc3)cc2)oc2cccc(OCc3cccnc3)c12 [Example 160, L-3-Methyl-2-(4′-{[3-methyl-4-(pyridin-3-ylmethoxy)-benzofuran-2-carbonyl]-amino}-biphenyl-4-sulfonylamino)-butyric acid] | –
17 | 0.0031 | 0.0058 | – | CC(C)[C@H](NS(=O)(=O)c1ccc(-c2ccc(NC(=O)c3cc(-c4ccc(Cl)cc4)no3)cc2)cc1)C(=O)O [Example 166, (S)-2-(4′-{[3-(4-Chloro-phenyl)-isoxazole-5-carbonyl]-amino}-biphenyl-4-sulfonylamino)-3-methyl-butyric acid] | –
18 | 0.0162 | 2.84 | – | Cc1c(C(=O)Nc2ccc(-c3ccc(S(=O)(=O)N[C@H](C(=O)O)C(C)C)cc3)nc2)oc2cccc(C#N)c12 [Example 40, L-2-(4-{5-[(4-Cyano-3-methyl-benzofuran-2-carbonyl)-amino]-pyridin-2-yl}-benzenesulfonylamino)-3-methyl-butyric acid] | –
19 | – | 0.0039 | 0.0004 | CC(C)C(NS(=O)(=O)c1ccc(-c2ccc(NC(=O)c3cc4cc(NS(C)(=O)=O)ccc4o3)cc2)cc1)C(=O)O (stereo in doubt) [Example 8, N-({4′-[({5-[(methylsulfonyl)amino]-1-benzofuran-2-yl}carbonyl)amino]-1,1′-biphenyl-4-yl}sulfonyl)-L-valine] | –
20 | 0.014 | 3.47 | – | CCS(=O)(=O)N(C)c1cccc2oc(C(=O)Nc3ccc(-c4ccc(S(=O)(=O)N[C@H](C(=O)O)C(C)C)cc4)cc3)c(C)c12 [Example 70, L-2-(4′-{[4-(Ethanesulfonyl-methyl-amino)-3-methyl-benzofuran-2-carbonyl]-amino}-biphenyl-4-sulfonylamino)-3-methyl-butyric acid] | –
21 | 0.0841 | 0.89 | – | C=Cc1cccc2oc(C(=O)Nc3ccc(-c4ccc(S(=O)(=O)N(C)[C@H](C(=O)O)C(C)C)cc4)cc3)c(C)c12 [Example 98, N-methyl-N-[(4′-{[(3-methyl-4-vinyl-1-benzofuran-2-yl)carbonyl]amino}-1,1′-biphenyl-4-yl)sulfonyl]-L-valine] | –
22 | 0.0085 | 2.67 | – | Cc1c(C(=O)Nc2ccc(-c3ccc(S(=O)(=O)N[C@H](C(=O)O)C(C)C)cc3)cc2)oc2cccc(-c3ccncc3)c12 [Example 112, (S)-3-Methyl-2-{4′-[(3-methyl-4-pyridin-4-yl-benzofuran-2-carbonyl)-amino]-biphenyl-4-sulfonylamino}-butyric acid] | –
23 | 0.021 | 3.15 | – | Cc1c(C(=O)Nc2ccc(-c3ccc(S(=O)(=O)N[C@H](C(=O)O)C(C)C)cc3)cc2)oc2cccc(CCCN(C)C)c12 [Example 32, L-2-(4′-{[4-(3-Dimethylamino-propyl)-3-methyl-benzofuran-2-carbonyl]-animo}-biphenyl-4-sulfonylamino)-3-methyl-butyric acid] | –
24 | 0.0044 | 0.625 | – | C=Cc1cccc2oc(C(=O)Nc3ccc(-c4ccc(S(=O)(=O)N[C@H](C(=O)O)C(C)C)cc4)cc3)c(C)c12 [Example 96, N-[(4′-{[(3-methyl-4-vinyl-1-benzofuran-2-yl)carbonyl]amino}-1,1′-biphenyl-4-yl)sulfonyl]-L-valine] | –
25 | 0.002 | 0.0259 | – | CC(C)[C@H](NS(=O)(=O)c1ccc(-c2ccc(NC(=O)c3nc4cc(Cl)ccc4s3)cc2)cc1)C(=O)O [Example 130, (S)-3-Methyl-2-{4′-[(5-chloro-benzothiazole-2-carbonyl)-amino]-biphenyl-4-sulfonylamino}-butyric acid] | –
